Reference: ChEMBL document CHEMBL2440076, “New triarylpyrazoles as broad-spectrum anticancer agents: design, synthesis, and biological evaluation” (Eur J Med Chem, 2013)

Key:
[1] = system: T47D; assay: Growth inhibition of human T47D cells assessed as cell growth at 10 uM after 48 hrs by sulforhodamine B assay; assay type: functional; conditions: read-out: Activity
[2] = system: PC-3; assay: Growth inhibition of human PC3 cells assessed as cell growth at 10 uM after 48 hrs by sulforhodamine B assay; assay type: functional; conditions: PC-3, 48 h, read-out: Activity
[3] = system: CAKI-1; assay: Growth inhibition of human CAKI-1 cells assessed as cell growth at 10 uM after 48 hrs by sulforhodamine B assay; assay type: functional; conditions: CAKI-1, 48 h, read-out: Activity
[4] = system: HT-29; assay: Growth inhibition of human HT-29 cells after 48 hrs by sulforhodamine B assay; assay type: functional; conditions: HT-29, 48 h; for CC50: read-out: LC50 (the source's name)
[5] = system: KM12; assay: Growth inhibition of human KM12 cells after 48 hrs by sulforhodamine B assay; assay type: functional, cell-based; conditions: KM12, 48 h; for CC50: read-out: LC50 (the source's name)
[6] = system: COLO 205; assay: Growth inhibition of human COLO205 cells after 48 hrs by sulforhodamine B assay; assay type: functional; conditions: COLO 205, 48 h
[7] = system: NCI-H23; assay: Growth inhibition of human NCI-H23 cells after 48 hrs by sulforhodamine B assay; assay type: functional; conditions: NCI-H23, 48 h
[8] = system: NCI-H226; assay: Growth inhibition of human NCI-H226 cells after 48 hrs by sulforhodamine B assay; assay type: functional; conditions: NCI-H226, 48 h; for CC50: read-out: LC50 (the source's name)
[9] = system: CCRF-CEM; assay: Growth inhibition of human CCRF-CEM cells after 48 hrs by sulforhodamine B assay; assay type: functional
[10] = system: RXF 393; assay: Growth inhibition of human RXF393 cells assessed as cell growth at 10 uM after 48 hrs by sulforhodamine B assay; assay type: functional; conditions: RXF 393, 48 h, read-out: Activity
[11] = system: 786-0; assay: Growth inhibition of human 786-0 cells assessed as cell growth at 10 uM after 48 hrs by sulforhodamine B assay; assay type: functional; conditions: 786-0, 48 h, read-out: Activity
[12] = system: A498; assay: Growth inhibition of human A498 cells assessed as cell growth at 10 uM after 48 hrs by sulforhodamine B assay; assay type: functional; conditions: A498, 48 h, read-out: Activity
[13] = system: OVCAR-5; assay: Growth inhibition of human OVCAR5 cells assessed as cell growth at 10 uM after 48 hrs by sulforhodamine B assay; assay type: functional; conditions: OVCAR-5, 48 h, read-out: Activity
[14] = system: OVCAR-8; assay: Growth inhibition of human OVCAR8 cells assessed as cell growth at 10 uM after 48 hrs by sulforhodamine B assay; assay type: functional; conditions: OVCAR-8, 48 h, read-out: Activity
[15] = system: SK-MEL-5; assay: Growth inhibition of human SK-MEL-5 cells assessed as cell growth at 10 uM after 48 hrs by sulforhodamine B assay; assay type: functional; conditions: SK-MEL-5, 48 h, read-out: Activity
[16] = system: SK-MEL-2; assay: Growth inhibition of human SK-MEL-2 cells assessed as cell growth at 10 uM after 48 hrs by sulforhodamine B assay; assay type: functional; conditions: SK-MEL-2, 48 h, read-out: Activity
[17] = system: Malme-3M; assay: Growth inhibition of human MALME-3M cells assessed as cell growth at 10 uM after 48 hrs by sulforhodamine B assay; assay type: functional; conditions: read-out: Activity
[18] = system: LOX IMVI; assay: Growth inhibition of human LOXIMVI cells assessed as cell growth at 10 uM after 48 hrs by sulforhodamine B assay; assay type: functional; conditions: read-out: Activity
[19] = system: U-251; assay: Growth inhibition of human U251 cells assessed as cell growth at 10 uM after 48 hrs by sulforhodamine B assay; assay type: functional; conditions: U-251, 48 h, read-out: Activity
[20] = system: HCT-15; assay: Growth inhibition of human HCT15 cells assessed as cell growth at 10 uM after 48 hrs by sulforhodamine B assay; assay type: functional; conditions: HCT-15, 48 h, read-out: Activity
[21] = Growth inhibition of human HCC2998 cells assessed as cell growth at 10 uM after 48 hrs by sulforhodamine B assay; assay type: functional; conditions: HCC 2998, 48 h, read-out: Activity
[22] = system: NCI-H322M; assay: Growth inhibition of human NCI-H322M cells assessed as cell growth at 10 uM after 48 hrs by sulforhodamine B assay; assay type: functional; conditions: read-out: Activity
[23] = system: BT-549; assay: Growth inhibition of human BT549 cells after 48 hrs by sulforhodamine B assay; assay type: functional; conditions: BT-549, 48 h
[24] = system: MCF7; assay: Growth inhibition of human MCF7 cells after 48 hrs by sulforhodamine B assay; assay type: functional; conditions: MCF7, 48 h
[25] = system: DU-145; assay: Growth inhibition of human DU145 cells after 48 hrs by sulforhodamine B assay; assay type: functional; conditions: DU-145, 48 h
[26] = system: RXF 393; assay: Growth inhibition of human RXF393 cells after 48 hrs by sulforhodamine B assay; assay type: functional; conditions: RXF 393, 48 h
[27] = system: OVCAR-5; assay: Growth inhibition of human OVCAR5 cells after 48 hrs by sulforhodamine B assay; assay type: functional; conditions: OVCAR-5, 48 h
[28] = system: SK-MEL-5; assay: Growth inhibition of human SK-MEL-5 cells after 48 hrs by sulforhodamine B assay; assay type: functional; conditions: SK-MEL-5, 48 h
[29] = system: UACC-257; assay: Growth inhibition of human UACC257 cells after 48 hrs by sulforhodamine B assay; assay type: functional; conditions: UACC-257, 48 h; for CC50: read-out: LC50 (the source's name)
[30] = system: MDA-MB-435; assay: Growth inhibition of human MDA-MB-435 cells after 48 hrs by sulforhodamine B assay; assay type: functional, cell-based; conditions: MDA-MB-435, 48 h; for CC50: read-out: LC50 (the source's name)
[31] = system: SF-539; assay: Growth inhibition of human SF539 cells after 48 hrs by sulforhodamine B assay; assay type: functional; conditions: SF-539, 48 h
[32] = system: HOP-62; assay: Growth inhibition of human HOP62 cells assessed as cell growth at 10 uM after 48 hrs by sulforhodamine B assay; assay type: functional; conditions: HOP-62, 48 h, read-out: Activity
[33] = system: A549; assay: Growth inhibition of human A549/ATCC cells assessed as cell growth at 10 uM after 48 hrs by sulforhodamine B assay; assay type: functional; conditions: A549, 48 h, read-out: Activity
[34] = system: RPMI-8226; assay: Growth inhibition of human RPMI8226 cells assessed as cell growth at 10 uM after 48 hrs by sulforhodamine B assay; assay type: functional; conditions: RPMI-8226, 48 h, read-out: Activity
[35] = system: CCRF-CEM; assay: Growth inhibition of human CCRF-CEM cells assessed as cell growth at 10 uM after 48 hrs by sulforhodamine B assay; assay type: functional; conditions: read-out: Activity

Molecule `O=C(Nc1cccc(-n2cc(-c3ccncc3)c(-c3ccc(Cl)c(O)c3)n2)c1)Nc1cc(C(F)(F)F)cc(C(F)(F)F)c1` has a growth at 10 µM [1] of 12.1%, a growth at 10 µM [2] of -32.4% and a growth at 10 µM [3] of 8.94%. It also gave a GI50 [4] of 746 nM, a TGI [4] of 1870 nM and a CC50 [4] of 4670 nM. For the same molecule, the GI50 [5] was 506 nM, the IC50 [5] was 510 nM and the TGI [5] was 1430 nM. For the same molecule, the CC50 [5] was 4060 nM, the GI50 [6] was 853 nM and the LC50 (concentration killing 50% of cells) [6] was 2920 nM. It also gave a TGI [6] of 1580 nM, a GI50 [7] of 1020 nM and an LC50 [7] of 18200 nM. The TGI [7] was 3270 nM, the GI50 [8] was 1240 nM and the TGI [8] was 6120 nM. It also gave a CC50 [8] of 37600 nM, a GI50 [9] of 789 nM and an LC50 [9] greater than 50000 nM. The TGI [9] was 6780 nM, the growth at 10 µM [10] was -66.7% and the growth at 10 µM [11] was -46.8%. For the same molecule, the growth at 10 µM [12] was -18.6%, the growth at 10 µM [13] was -32.9% and the growth at 10 µM [14] was -12.2%. It also gave a growth at 10 µM [15] of -94.7%, a growth at 10 µM [16] of -73.7% and a growth at 10 µM [17] of -23%. For the same molecule, the growth at 10 µM [18] was -94.1%, the growth at 10 µM [19] was -83.8% and the growth at 10 µM [20] was -7.23%. For the same molecule, the growth at 10 µM [21] was -56.9%, the growth at 10 µM [22] was 5.11% and the GI50 [23] was 1090 nM. The LC50 (50% lethal concentration) [23] was 4110 nM, the TGI [23] was 2120 nM and the GI50 [24] was 540 nM. The LC50 [24] was 31500 nM, the TGI [24] was 5790 nM and the GI50 [25] was 1250 nM. For the same molecule, the LC50 [25] was 17400 nM, the TGI [25] was 5620 nM and the GI50 [26] was 937 nM. It also gave an LC50 (concentration killing 50% of cells) [26] of 10700 nM, a TGI [26] of 2490 nM and a GI50 [27] of 875 nM. The LC50 (concentration killing 50% of cells) [27] was 4700 nM, the TGI [27] was 2030 nM and the GI50 [28] was 600 nM. For the same molecule, the LC50 (concentration killing 50% of cells) [28] was 2620 nM, the TGI [28] was 1250 nM and the GI50 [29] was 965 nM. It also gave a TGI [29] of 2550 nM, a CC50 [29] of 10600 nM and a GI50 [30] of 910 nM. The IC50 [30] was 910 nM, the TGI [30] was 2590 nM and the CC50 [30] was 15600 nM. For the same molecule, the GI50 [31] was 765 nM, the LC50 (concentration killing 50% of cells) [31] was 2890 nM and the TGI [31] was 1490 nM. For the same molecule, the growth at 10 µM [32] was -86.1%, the growth at 10 µM [33] was -32.5% and the growth at 10 µM [34] was -10.9%. The growth at 10 µM [35] was -16%.
With `COc1cc(-c2nn(-c3cccc(NC(=O)Nc4ccc(Cl)c(Cl)c4)c3)cc2-c2ccncc2)ccc1Cl` the growth at 10 µM [1] was 2.98%, the growth at 10 µM [2] was -17.6% and the growth at 10 µM [3] was 16.8%. It also gave a GI50 [4] of 1240 nM, a TGI [4] of 6460 nM and a CC50 [4] greater than 50000 nM. It also gave a GI50 [5] of 811 nM, an IC50 [5] of 810 nM and a TGI [5] of 2770 nM. For the same molecule, the CC50 [5] was 49500 nM, the GI50 [6] was 937 nM and the LC50 (concentration killing 50% of cells) [6] was 3140 nM. It also gave a TGI [6] of 1720 nM, a GI50 [7] of 1410 nM and an LC50 [7] greater than 50000 nM. For the same molecule, the TGI [7] was 5190 nM, the GI50 [8] was 1350 nM and the TGI [8] was greater than 50000 nM. For the same molecule, the CC50 [8] was greater than 50000 nM, the GI50 [9] was 1040 nM and the LC50 [9] was greater than 50000 nM. The growth at 10 µM [10] was -22.8%, the growth at 10 µM [11] was 15.3% and the growth at 10 µM [12] was -6.82%. For the same molecule, the growth at 10 µM [13] was 38%, the growth at 10 µM [14] was -17.2% and the growth at 10 µM [15] was -80%. The growth at 10 µM [16] was -44.2%, the growth at 10 µM [17] was -19.9% and the growth at 10 µM [18] was 1.38%. For the same molecule, the growth at 10 µM [19] was -6.02%, the growth at 10 µM [20] was 12.7% and the growth at 10 µM [21] was 2.84%. For the same molecule, the growth at 10 µM [22] was 38.8%, the GI50 [23] was 1680 nM and the LC50 (50% lethal concentration) [23] was greater than 50000 nM. For the same molecule, the TGI [23] was 27600 nM, the GI50 [24] was 945 nM and the LC50 [24] was greater than 50000 nM. For the same molecule, the TGI [24] was greater than 50000 nM, the GI50 [25] was 1520 nM and the LC50 [25] was greater than 50000 nM. For the same molecule, the TGI [25] was 34200 nM, the GI50 [26] was 859 nM and the LC50 (concentration killing 50% of cells) [26] was greater than 50000 nM. For the same molecule, the TGI [26] was 2440 nM, the GI50 [27] was 2130 nM and the LC50 (concentration killing 50% of cells) [27] was greater than 50000 nM. It also gave a TGI [27] greater than 50000 nM, a GI50 [28] of 741 nM and an LC50 (concentration killing 50% of cells) [28] of 3020 nM. The TGI [28] was 1490 nM, the GI50 [29] was 1040 nM and the TGI [29] was 3110 nM. The CC50 [29] was greater than 50000 nM, the GI50 [30] was 938 nM and the IC50 [30] was 940 nM. The TGI [30] was 2390 nM, the CC50 [30] was greater than 50000 nM and the GI50 [31] was 965 nM. It also gave an LC50 (concentration killing 50% of cells) [31] greater than 50000 nM, a TGI [31] of 3080 nM and a growth at 10 µM [32] of 10.2%. It also gave a growth at 10 µM [33] of -5.88%, a growth at 10 µM [34] of -11.6% and a growth at 10 µM [35] of -7.9%.
